Like-named read-outs stand apart in the source and are kept apart here.
Columns and labels:
Type in all cases: cell-based
EBV+ LCLs = assay: Cell surface protein expression on EBV+ LCLs, flow cytometry (Example 8)
purified CD56+ NK cells = assay: Cell surface protein expression on NK cells, flow cytometry (Example 8); details: 24 hours; for expression of activating NK cell receptor NKG2D: AR-42 100, 500 nM, SAHA 100, 1000 nM
Text: The mechanism by which HDAC inhibition affects NK cell-driven ADCC was investigated in vitro. […] Viable cells were then collected and stained with monoclonal antibodies specific for cell surface proteins with known stimulatory (NKG2D, FcγRIII) or inhibitory (KIR) activity. Protein expression was then quantified via flow cytometry.

[1] = system: NK cell-driven antibody dependent cellular cytotoxicity (ADCC) against target B cells; assay: NK cell-driven ADCC, four hour 51Cr release assay (Example 3)
Description: (§1) The effects of AR-42 on EBV-specific cytotoxic T cell (CTL) cytotoxicity were assessed in vitro. Peripheral blood mononuclear cells (PBMC) and autologous EBV+ LCL were co-culturing in media containing IL-2 (50 μM) and either DSMO (control) or AR-42 (100 nM). EBV-specific CTLs were identified with anti-CD8 mAb and HLAB8-RAK tetramer, upon a 12 day expansion, the results of which are shown in FIG. 10. […] At day 13, the EBV-specific CTLs were incubated overnight in 100, 250, & 500 nM AR-42+IL-2 (50 μM). The next day, a four hour ^51Cr release assay was performed on each incubated sample in order to access the effects of AR-42 on EBV-specific cytotoxic T cell (CTL) cytotoxicity. This is shown schematically in FIG. 2, which illustrates autologous target EBV+ LCLs are labeled with ^51Cr, which is actively internalized by each cell via pumps in its membrane; effector CTLs are counted and plated at desired effector-target ratios; labeled targets are incubated with effectors for four hours; and lysed targets release intracellular ^51Cr into the supernatant, which is harvested and analyzed for radioactivity using a gamma counter. Effector-target ratios of 50:1, 25:1, and 12.5:1 were used.
The effects of AR-42 on NK cell-driven antibody dependent cellular cytotoxicity (ADCC) were assessed in vitro. NK cells were treated overnight with AR-42 (100 nM, 250 nM, 500 nM) or Rituximab (anti-CD20) or Herceptin (anti-erbB2). Rituximab (anti-CD20) was the antibody of choice for the assay because of its wide clinical use and proven efficacy against B cell lymphomas that express CD20 antigen. Herceptin (anti-erbB2), a commonly used breast cancer drug, was used as a negative control. The effect of AR-42 on NK cell-driven antibody dependent cellular cytotoxicity (ADCC) was assessed using a four hour ^51Cr release assay. The four hour ^51Cr release assay was performed as described with respect to Example 2A, except that effector-target ratios of 25:1, 12.5:1, & 6.25:1 were used.

Purified NK cells [2] = assay: NK cell 51Cr release cytotoxicity assay, continuous treatment or washout (Example 7); details: control 64%
Text: (§2) Purified NK cells in DMSO were used as a control. The cells were subsequently analyzed in an IFNγ ELISPOT assay or a ^51Cr release cytotoxicity assay.

[3] = system: Activated EBV-specific T cells; assay: T cell IFNγ and GzB ELISPOT (Example 4); details: 4 days; for T cell IFNγ secretion, ELISPOT: untreated control 98 spots; for T cell GzB secretion, ELISPOT: untreated control 107 spots
Description: The production of proteins associated with the T cell cytotoxic response (interferon-γ, granzyme B) was determined in vitro. Activated EBV-specific T cells were initially treated for 4 days (T) with 100 nM or 500 nM AR-42 and further stimulated with EBV+ LCLs (effector-target ratio: 1:1) in an ELISPOT assay to determine IFNγ and GzB secretion potentials. Release of interferon-gamma (IFNγ) or granzyme B (GzB) was visualized using monoclonal IFNγ/GzB antibodies with BCIP/NBT substrate solution. Results were quantified by an enzyme-linked immunosorbent spot assay (ELISPOT) analyzer.

[4] = system: Activated EBV-specific T cells; assay: T cell ELISPOT with and without AR-42 washout (Example 6); details: long-term exposure, 500 nM
Description: Activated EBV-specific T cells expanded in the presence of AR-42 were further incubated in media with and without AR-42. After 5 days, the T cells were stimulated with EBV+ LCLs in an ELISPOT assay to determine IFNγ and GzB secretion potentials.

[5] = system: peripheral blood mononuclear cells (PBMCs); assay: PBMC viability, PI staining and flow cytometry (Example 9); details: 100, 250, 500, 1000 nM, 2 and 4 days
Description: The effect of AR-42 on the viability of peripheral blood mononuclear cells (PBMCs) was determined. PBMCs were isolated from three random donor leukopaks and incubated with AR-42 (100 nM, 250 nM, 500 nM, 1000 nM) for 2 and 4 days. Viability was assessed by PI staining using flow cytometry. All results were normalized relative to untreated DMSO controls. […] The standard deviations in FIG. 15 represent the mean of the three leukopaks.

Purified NK cells [6] = assay: NK cell IFNγ and GzB ELISPOT (Example 5); details: for NK cell GzB, ELISPOT: untreated control 91 spots; for NK cell IFNγ, ELISPOT: untreated control 314 spots
Description: Purified NK cells were initially treated overnight (NK) with 100 nM, 250 nM or 500 nM AR-42. The NK cells were further stimulated using inflammatory cytokines cytokines IL-2 (50 pM) and IL-12 (10 ng/ml) in an ELISPOT assay to determine IFNγ and GzB secretion potentials. Results were quantified by an ELISPOT analyzer.

[7] = system: EBV-specific CD8+ T-cells; assay: EBV-specific T-cell expansion, RAK tetramer (Example 2A); details: 100, 250, 500 nM, two weeks co-culture with irradiated LCLs
Description: The effect of AR-42 on EBV-specific T-cell expansion was determined. Irradiated LCLs were added to purified PBMCs and maintained in co-culture for two weeks with AR-42 (100 nM, 250 nM, 500 nM). After two weeks, the EBV-specific T-cell expansion was measured using the RAK tetramer. This tetramer contains the […] peptide which binds the HLA-B8 MHC type I epitope, and can be used to identify EBV-specific (BZLF1 specific) CD8+ T-cells.

LCLs (C7M3, DC9) = assay: Viability and proliferation of lymphoblastoid cell lines (Example 1A); details: 100, 250, 500, 750 and 1000 nM
Description: The effects of AR-42 on the viability and proliferation of lymphoblastoid cell lines was determined. […] Cell viability was analyzed by annexin/PI staining and flow cytometry. Cell counts were measured at day 5. The results are seen in FIGS. 14A and 14B. In FIGS. 14A and 14B, the standard deviation represents the results from triplicate experiments.

[8] = system: EBV+ transformed B lymphoblastoid cell lines (EBV+ LCL); assay: Viability of EBV+ LCL cultured with HDAC inhibitors, annexin/PI staining and flow cytometry (Example 1)
Description: Cell viability was then analyzed every 24 hours by annexin/PI staining and flow cytometry.

Purified NK cells [9] = assay: NK cell IFNγ ELISPOT, continuous treatment or washout (Example 7); details: control 569 spots
Text: as §2

[10] = system: EBV-specific cytotoxic T cell (CTL) cytotoxicity against autologous EBV+ LCLs; assay: EBV-specific CTL cytotoxicity, four hour 51Cr release assay (Example 2)
Description: as §1

Compound: CC(C)C(C(=O)Nc1ccc(C(=O)NO)cc1)c1ccccc1 (stereo not drawn) [AR-42, N-hydroxy-4-(3-methyl-2-phenyl-butyrylamino)-benzamide]
- Mic A/B (NKG2D ligand) expression on EBV+ LCLs (EBV+ LCLs; 500 nM and 1000 nM, 24 and 48 hours): unaffected
- MHC Class I expression (KIR ligand) on EBV+ LCLs (EBV+ LCLs; higher concentrations (500 nM and 1000 nM, 24 and 48 hours)): down modulates
- expression of inhibitory receptor KIR on NK cells (purified CD56+ NK cells; especially at 500 nM): down modulates
- expression of activating NK cell receptor NKG2D (purified CD56+ NK cells): down modulate
- NK cytotoxicity (ADCC) in combination with rituximab ([1]; 100 nM overnight, highest effector-target ratio (25:1)): 36%
- NK cytotoxicity (ADCC) in combination with rituximab ([1]; 250 nM overnight, highest effector-target ratio (25:1)): 23%
- NK cytotoxicity (ADCC) in combination with rituximab ([1]; 500 nM overnight): 1.1%
- NK cytotoxic activity (Purified NK cells [2]; 100 nM treated, max E:T ratio): 36%
- NK cytotoxic activity (Purified NK cells [2]; 100 nM, washout): 41%
- NK cytotoxic activity (Purified NK cells [2]; 250 nM treated, max E:T ratio): 23%
- NK cytotoxic activity (Purified NK cells [2]; 250 nM, washout): 36%
- NK cytotoxic activity (Purified NK cells [2]; 500 nM treated, max E:T ratio): 1%
- NK cytotoxic activity (Purified NK cells [2]; 500 nM, washout): 42%
- T cell IFNγ secretion, ELISPOT ([3]; 100 nM): 47 spots
- T cell GzB secretion, ELISPOT ([3]; 100 nM): 99 spots
- T cell IFNγ secretion, ELISPOT ([3]; 500 nM): 3 spots
- T cell GzB secretion, ELISPOT ([3]; 500 nM): 5 spots
- cytotoxic function of activated T cells [4]: eventual loss of cytotoxic function
- viability of PBMCs [5]: decreases the viability of PBMCs in a dose dependent manner
- NK cell GzB, ELISPOT (Purified NK cells [6]; 100 nM overnight): 22 spots
- NK cell IFNγ, ELISPOT (Purified NK cells [6]; 100 nM overnight): 63 spots
- NK cell GzB, ELISPOT (Purified NK cells [6]; 250 nM overnight): 7 spots
- NK cell IFNγ, ELISPOT (Purified NK cells [6]; 250 nM overnight): 10 spots
- NK cell GzB, ELISPOT (Purified NK cells [6]; 500 nM overnight): 10 spots
- NK cell IFNγ, ELISPOT (Purified NK cells [6]; 500 nM overnight): 1 spots
- EBV-specific T-cell expansion [7]: decreases EBV-specific T-cell expansion in a dose dependent manner
- antiproliferative activity in EBV+ LCL cell lines (LCLs (C7M3, DC9)): antiproliferative activity in EBV+ LCL cell lines in a dose dependent manner
- concentration that inhibits EBV+ LCL growth [8]: ≥ 250 nM
- viability at day 4 compared with day 2 ([8]; 750 and 1000 nM): higher viability by day 4
- viability at 0.25 µM ([8]; Lymphoblastoid cell, 48 h, 250 nM, day 2, read-out: viability of B cell population): 87%
- viability at 0.5 µM ([8]; Lymphoblastoid cell, 48 h, 500 nM, day 2, read-out: viability of B cell population): 75%
- viability at 0.75 µM ([8]; Lymphoblastoid cell, 48 h, 750 nM, day 2, read-out: viability of B cell population): 62%
- viability at 1 µM ([8]; Lymphoblastoid cell, 48 h, 1000 nM, day 2, read-out: viability of B cell population): 54%
- NK cell IFNγ secretion, ELISPOT (Purified NK cells [9]; AR-42 100 nM treated): 207 spots
- NK cell IFNγ secretion, ELISPOT (Purified NK cells [9]; AR-42 100 nM, 24 hour treatment+24 hour washout): 418 spots
- NK cell IFNγ secretion, ELISPOT (Purified NK cells [9]; AR-42 250 nM treated): 10 spots
- NK cell IFNγ secretion, ELISPOT (Purified NK cells [9]; AR-42 250 nM, 24 hour treatment+24 hour washout): 235 spots
- NK cell IFNγ secretion, ELISPOT (Purified NK cells [9]; AR-42 500 nM treated): 6 spots
- NK cell IFNγ secretion, ELISPOT (Purified NK cells [9]; AR-42 500 nM, 24 hour treatment+24 hour washout): 96 spots
- CTL cytotoxicity ([10]; 100 nM overnight, highest effector-target ratio (50:1)): 19%
- CTL cytotoxicity ([10]; 250 nM overnight, highest effector-target ratio (50:1)): 12%
- CTL cytotoxicity ([10]; 500 nM overnight): −2%

Compound: O=C(CCCCCCC(=O)Nc1ccccc1)NO [SAHA, suberoylanilide hydroxamic acid, reference compound]
- expression of activating NK cell receptor NKG2D (purified CD56+ NK cells): down modulate
- B cell death ([8]; 250-2000 nM, 4 day incubation): little cell death
- viability at 4 µM ([8]; Lymphoblastoid cell, 96 h, 4000 nM, day 4, read-out: viability of B cell population): 69%
- NK cell IFNγ secretion, ELISPOT (Purified NK cells [9]; SAHA 100 nM treated): 452 spots
- NK cell IFNγ secretion, ELISPOT (Purified NK cells [9]; SAHA 500 nM treated): 366 spots
- NK cell IFNγ secretion, ELISPOT (Purified NK cells [9]; SAHA 1000 nM treated): 166 spots

Compound: CCCC(CCC)C(=O)O [valproate, reference compound]
- viability at 2000 µM ([8]; Lymphoblastoid cell, 72 h, 2.0 mM, day 3, read-out: viability of B cell population): 83%
- viability at 3000 µM ([8]; Lymphoblastoid cell, 72 h, 3 mM, day 3, read-out: viability of B cell population): 73%
- viability at 4000 µM ([8]; Lymphoblastoid cell, 72 h, 4.0 mM, day 3, read-out: viability of B cell population): 63%
- viability at 4000 µM ([8]; Lymphoblastoid cell, 96 h, 4 mM, day 4, read-out: viability of B cell population): 71%
- NK cell IFNγ secretion, ELISPOT (Purified NK cells [9]; valproate 1 mM): 446 spots
- NK cell IFNγ secretion, ELISPOT (Purified NK cells [9]; valproate 2 mM): 238 spots

Compound: rituximab: anti-CD20 antibody used for the ADCC assay
- relative ADCC ([1]; NK cells not treated with AR-42, effector-target ratio 6.25:1): 52%
- relative ADCC ([1]; NK cells not treated with AR-42, effector-target ratio 12.5:1): 56%
- relative ADCC ([1]; NK cells not treated with AR-42, effector-target ratio 25:1): 64%

Source: patent publication US20110281950A1, “COMPOSITIONS AND METHODS FOR REDUCING PROLIFERATION AND VIABILITY OF LYMPHOBLASTOID CELLS” (priority 2010, published 2011)
